Legend:
[1] = target: Aldo-keto reductase family 1 member B1 (Rattus norvegicus, UniProt P07943); experiment: biochemical; type: tissue-based, Lens of camera-type eye;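 also: inhibition of aldose reductase enzyme activity, measured with DL-glyceraldehyde as the substrate; in other assays of this panel Not Active means under 50% inhibition at 10 µM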
[2] = target: C-C chemokine receptor type 5 (Homo sapiens, UniProt P51681); type: cell membranes, Membrane; details: hek293; also: in other assays of this panel Not Active means under 50% inhibition at 10 µM
Chain of C-C chemokine receptor type 5 (P51681 whole entry): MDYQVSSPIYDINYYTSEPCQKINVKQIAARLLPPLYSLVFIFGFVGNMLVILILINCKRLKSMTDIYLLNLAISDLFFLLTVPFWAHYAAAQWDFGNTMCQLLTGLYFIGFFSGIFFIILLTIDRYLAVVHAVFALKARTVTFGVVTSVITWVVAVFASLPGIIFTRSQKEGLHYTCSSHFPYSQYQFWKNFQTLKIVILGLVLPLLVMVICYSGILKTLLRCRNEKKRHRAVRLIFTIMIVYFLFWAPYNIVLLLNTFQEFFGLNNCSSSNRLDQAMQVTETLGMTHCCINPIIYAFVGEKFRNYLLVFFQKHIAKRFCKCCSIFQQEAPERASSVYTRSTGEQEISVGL

[3] = DRUGMATRIX: Glutamate, NMDA, Agonism radioligand binding (ligand: [3H] CGP-39653); type: cell membranes, Rattus norvegicus, Wistar, Cerebral cortex, Membrane; details: Not Active = under 50% inhibition at 10 µM
[4] = target: T1, Cysteinyl leukotriene receptor 1 (Homo sapiens, UniProt Q9Y271); type: cell membranes, CHO-K1, Membrane; details: cho-k1; also: in other assays of this panel Not Active means under 50% inhibition at 10 µM
T1 sequence (Q9Y271 whole entry): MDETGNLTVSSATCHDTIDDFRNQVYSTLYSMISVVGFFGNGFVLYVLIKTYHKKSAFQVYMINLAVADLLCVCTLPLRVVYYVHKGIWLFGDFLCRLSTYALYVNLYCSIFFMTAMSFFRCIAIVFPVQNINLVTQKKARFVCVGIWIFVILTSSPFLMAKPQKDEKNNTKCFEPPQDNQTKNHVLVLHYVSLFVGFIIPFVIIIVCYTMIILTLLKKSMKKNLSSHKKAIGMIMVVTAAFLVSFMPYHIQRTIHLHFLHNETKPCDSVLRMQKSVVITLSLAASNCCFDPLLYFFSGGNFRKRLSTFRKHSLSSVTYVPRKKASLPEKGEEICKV

Melanocortin receptor 5 = Melanocortin receptor 5 (Homo sapiens, UniProt P33032); type: cell membranes, HEK293, Membrane; details: hek293; also: in other assays of this panel Not Active means under 50% inhibition at 10 µM
Chain of Melanocortin receptor 5 (P33032 whole entry): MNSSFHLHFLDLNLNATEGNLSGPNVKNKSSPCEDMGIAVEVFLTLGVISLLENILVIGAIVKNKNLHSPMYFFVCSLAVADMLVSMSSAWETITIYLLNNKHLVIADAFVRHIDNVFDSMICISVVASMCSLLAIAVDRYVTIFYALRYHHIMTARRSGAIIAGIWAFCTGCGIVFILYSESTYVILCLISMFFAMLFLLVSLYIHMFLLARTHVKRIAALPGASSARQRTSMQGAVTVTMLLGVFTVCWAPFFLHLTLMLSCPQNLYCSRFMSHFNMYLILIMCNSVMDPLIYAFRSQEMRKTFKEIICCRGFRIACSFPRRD

[5] = DRUGMATRIX: Platelet-Derived Growth Factor (PDGF) radioligand binding (ligand: [125I] PDGF); type: cell-based; details: nih3t3; Not Active = under 50% inhibition at 10 µM
[6] = DRUGMATRIX: Potassium Channel [KATP] radioligand binding (ligand: [3H] Glyburide); type: cell membranes, Membrane; details: hit-t15; Not Active = under 50% inhibition at 10 µM
Adenosine receptor A1 = target: T2, Adenosine receptor A1 (Homo sapiens, UniProt P30542); type: cell membranes, CHO, Membrane; details: cho
T2 sequence (P30542 whole entry): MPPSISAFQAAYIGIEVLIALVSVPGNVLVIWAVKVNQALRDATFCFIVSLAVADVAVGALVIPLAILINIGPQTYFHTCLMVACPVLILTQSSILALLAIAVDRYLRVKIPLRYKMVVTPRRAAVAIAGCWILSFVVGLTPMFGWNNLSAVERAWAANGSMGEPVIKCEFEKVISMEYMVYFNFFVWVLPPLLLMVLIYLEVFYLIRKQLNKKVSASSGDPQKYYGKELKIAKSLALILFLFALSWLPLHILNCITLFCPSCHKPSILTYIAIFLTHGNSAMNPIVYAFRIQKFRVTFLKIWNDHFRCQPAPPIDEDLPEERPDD

O=C(CCCN1CC=C(n2c(=O)[nH]c3ccccc32)CC1)c1ccc(F)cc1 [DROPERIDOL]
Not Active: IC50 [1] | IC50 [2] | IC50 [3] | Ki [3] | IC50 [4] | IC50 (Melanocortin receptor 5) | IC50 [5] | Ki [5] | IC50 [6] | Ki [6] | IC50 (Adenosine receptor A1)

CC(C)[C@H]1C(=O)N2CCC[C@H]2[C@]2(O)O[C@](NC(=O)[C@@H]3C=C4c5cccc6[nH]cc(c56)C[C@H]4N(C)C3)(C(C)C)C(=O)N12 [ERGOCORNINE]
Not Active: IC50 [1] | IC50 [2] | IC50 [3] | Ki [3] | IC50 [4] | IC50 (Melanocortin receptor 5) | IC50 [5] | Ki [5] | IC50 [6] | Ki [6] | IC50 (Adenosine receptor A1)

C[C@]12CC[C@@H]3c4ccc(O)cc4CC[C@H]3[C@@H]1CCC2=O [ESTRONE]
Not Active: IC50 [1] | IC50 [2] | IC50 [3] | Ki [3] | IC50 [4] | IC50 (Melanocortin receptor 5) | IC50 [5] | Ki [5] | IC50 [6] | Ki [6] | IC50 (Adenosine receptor A1)

OC(Cn1cncn1)(Cn1cncn1)c1ccc(F)cc1F [FLUCONAZOLE]
Not Active: IC50 [1] | IC50 [2] | IC50 [3] | Ki [3] | IC50 [4] | IC50 (Melanocortin receptor 5) | IC50 [5] | Ki [5] | IC50 [6] | Ki [6] | IC50 (Adenosine receptor A1)

CC(C)C(=O)Nc1ccc([N+](=O)[O-])c(C(F)(F)F)c1 [FLUTAMIDE]
Not Active: IC50 [1] | IC50 [2] | IC50 [3] | Ki [3] | IC50 [4] | IC50 (Melanocortin receptor 5) | IC50 [5] | Ki [5] | IC50 [6] | Ki [6] | IC50 (Adenosine receptor A1)

N=C(N)NCCN1CCCCCCC1 [GUANETHIDINE]
Not Active: IC50 [1] | IC50 [2] | IC50 [3] | Ki [3] | IC50 [4] | IC50 (Melanocortin receptor 5) | IC50 [5] | Ki [5] | IC50 [6] | Ki [6] | IC50 (Adenosine receptor A1)

CC1(C)O[C@@H]2C[C@H]3[C@@H]4CCC5=CC(=O)CC[C@]5(C)[C@@]4(F)[C@@H](O)C[C@]3(C)[C@]2(C(=O)CCl)O1 [HALCINONIDE]
Not Active: IC50 [1] | IC50 [2] | IC50 [3] | Ki [3] | IC50 [4] | IC50 (Melanocortin receptor 5) | IC50 [5] | Ki [5] | IC50 [6] | Ki [6] | IC50 (Adenosine receptor A1)

O=c1[nH]c(=O)n([C@H]2C[C@H](O)[C@@H](CO)O2)cc1I [IDOXURIDINE]
Not Active: IC50 [1] | IC50 [2] | IC50 [3] | Ki [3] | IC50 [4] | IC50 (Melanocortin receptor 5) | IC50 [5] | Ki [5] | IC50 [6] | Ki [6] | IC50 (Adenosine receptor A1)

CC1Cc2ccccc2N1NC(=O)c1ccc(Cl)c(S(N)(=O)=O)c1 (stereo unspecified) [INDAPAMIDE]
Not Active: IC50 [1] | IC50 [2] | IC50 [3] | Ki [3] | IC50 [4] | IC50 (Melanocortin receptor 5) | IC50 [5] | Ki [5] | IC50 [6] | Ki [6] | IC50 (Adenosine receptor A1)

Nc1nc(N)nc(-c2cc(Cl)ccc2Cl)n1.O=C(O)/C=C\C(=O)O [IRSOGLADINE MALEATE]
Not Active: IC50 [1] | IC50 [2] | IC50 [3] | Ki [3] | IC50 [4] | IC50 (Melanocortin receptor 5) | IC50 [5] | Ki [5] | IC50 [6] | Ki [6] | IC50 (Adenosine receptor A1)

CCC(C)n1ncn(-c2ccc(N3CCN(c4ccc(OCC5COC(Cn6cncn6)(c6ccc(Cl)cc6Cl)O5)cc4)CC3)cc2)c1=O (stereo unspecified) [ITRACONAZOLE]
Not Active: IC50 [1] | IC50 [2] | IC50 [3] | Ki [3] | IC50 [4] | IC50 (Melanocortin receptor 5) | IC50 [5] | Ki [5] | IC50 [6] | Ki [6] | IC50 (Adenosine receptor A1)

CCCCN1CCCC[C@H]1C(=O)Nc1c(C)cccc1C [LEVOBUPIVACAINE]
Not Active: IC50 [1] | IC50 [2] | IC50 [3] | Ki [3] | IC50 [4] | IC50 (Melanocortin receptor 5) | IC50 [5] | Ki [5] | IC50 [6] | Ki [6] | IC50 (Adenosine receptor A1)

CCCCc1nc(Cl)c(CO)n1Cc1ccc(-c2ccccc2-c2nnn[nH]2)cc1 [LOSARTAN]
Not Active: IC50 [1] | IC50 [2] | IC50 [3] | Ki [3] | IC50 [4] | IC50 (Melanocortin receptor 5) | IC50 [5] | Ki [5] | IC50 [6] | Ki [6] | IC50 (Adenosine receptor A1)

Sc1ncnc2nc[nH]c12 [MERCAPTOPURINE ANHYDROUS]
Not Active: IC50 [1] | IC50 [2] | IC50 [3] | Ki [3] | IC50 [4] | IC50 (Melanocortin receptor 5) | IC50 [5] | Ki [5] | IC50 [6] | Ki [6] | IC50 (Adenosine receptor A1)

C[C@](N)(Cc1ccc(O)c(O)c1)C(=O)O [METHYLDOPA]
Not Active: IC50 [1] | IC50 [2] | IC50 [3] | Ki [3] | IC50 [4] | IC50 (Melanocortin receptor 5) | IC50 [5] | Ki [5] | IC50 [6] | Ki [6] | IC50 (Adenosine receptor A1)

C[C@]12CCC(=O)C=C1CC[C@@H]1[C@@H]2CC[C@@]2(C)[C@H]1CC[C@]2(C)O [METHYLTESTOSTERONE]
Not Active: IC50 [1] | IC50 [2] | IC50 [3] | Ki [3] | IC50 [4] | IC50 (Melanocortin receptor 5) | IC50 [5] | Ki [5] | IC50 [6] | Ki [6] | IC50 (Adenosine receptor A1)
